Assay results: patent US7138543B2, “Thiolalkyl benzoic acid derivatives” (Guilford Pharmaceuticals Inc., priority 2001, dated 2006)

Legend:
[1] = system: rats with unilateral elevation of intraocular pressure; assay: Experimental rat glaucoma (IOP elevation, optic nerve fiber counting); assay type: in vivo; details: for FIBER NUMBER: 10 mg/kg daily intraperitoneal; for PERCENT DIFFERENCE in fiber number between glaucoma and normal eye: positive value indicates fewer fibers in the glaucoma eye
Protocol: Protective Effect of NAALADase Inhibitors in Experimental Rat Glaucoma
(§1) All experiments complied with the Association for Research in Vision and Ophthalmology Statement for the Use of Animals in Ophthalmic and Vision Research. 82 male Brown Norway rats (Rattus norvegicus), each weighing approximately 250 gm, were treated using procedures approved by the Animal Care Committee of the Johns Hopkins University School of Medicine. The rats were housed with a 12 hour light/12 hour dark cycle and fed ad libitum.
EXPERIMENTAL GLAUCOMA: Unilateral elevation of intraocular pressure (“IOP”) was produced in 56 rats by microinjection of hypertonic saline into episcleral veins, following procedures described in Morrison, J. et al., IOVS (March 1998) 39:526–531. Beginning on the day of IOP elevation, the rats were treated daily with intraperitoneal injections of either a vehicle (23 rats with 50 mM HEPES-buffered saline) or a NAALADase inhibitor (11 rats with 10 mg/kg of Compound A and 22 rats with 10 mg/kg of Compound B). 11 saline treated rats, 11 Compound A treated rats and 11 Compound B treated rats were sacrificed at 8 weeks, and the remaining rats at 12 weeks, after initial IOP elevation.
(§2) OPTIC NERVE COUNTING: The rats were sacrificed by exsanguination under deep pentobarbital anesthesia. They were perfused through the heart with 2% paraformaldehyde/2% glutaraldehyde in 0.1 M phosphate buffer, pH 7.2, and the eyes with attached optic nerves were removed. A cross-section of the optic nerve from both experimental (glaucoma or transection) and control eyes was removed 1.5 mm posterior to the globe, 1 mm in thickness, and post-fixed in 2% osmium tetroxide in buffer. These were processed into epoxy resin, sectioned at 1 micron and stained with toluidine blue.
(§3) The area of the optic nerve cross-section was measured by outlining its outer border at 10× magnification on an image analysis system (Universal Imaging Corp., Westchester, Pa.) with Synsys digital camera and Metamorph software. Three area measurements were taken and the mean value was determined. To measure the density and fiber diameter distributions, images were captured with a 100× phase contrast objective from 10 different areas of each nerve. These were edited to eliminate non-neural objects and the size of each axon internal to the myelin sheath (its minimum diameter) and the density of axons/square mm were calculated for each image and nerve. The mean density was multiplied by total nerve area to yield fiber number for each nerve. The total fiber number in glaucoma or transection nerves was compared to the normal, fellow eye of each rat to yield a percent loss value. The number of axons counted among the 10 images was an approximately 20% sample of the 80–90,000 axons in normal rat nerves. The person measuring axon number was masked to the protocol conducted on the nerves.

[2] = system: rats with unilaterally transected optic nerve; assay: Optic nerve transection (optic nerve fiber counting); assay type: in vivo, Rattus norvegicus; details: for FIBER NUMBER: 10 mg/kg daily intraperitoneal
Protocol: as §1
OPTIC NERVE TRANSECTION: The optic nerve was transected unilaterally in 26 rats under intraperitoneal pentobarbital anesthesia. The conjunctiva was opened with scissors and the optic nerve exposed by traction on extraocular muscles. The transection was performed with microscissors 5 mm posterior to the globe, with specific attention to avoidance of injury to major ocular blood vessels. Immediately after transection, the retina was examined ophthalmoscopically to assure that the retinal arterial blood supply was not disrupted. The conjunctiva was closed with absorbable suture and the eye dressed with antibiotic ointment. Beginning on the day of transection, the rats were treated daily with intraperitoneal injections of either a vehicle (9 rats with 50 mM HEPES-buffered saline) or a NAALADase inhibitor (8 rats with 10 mg/kg of Compound A and 9 rats with 10 mg/kg of Compound B). 5 saline treated rats, 3 Compound A treated rats, and 4 Compound B treated rats were sacrificed at 2 weeks, and the remaining rats at 4 weeks, after transection.
as §2, §3

[3] = system: transgenic HD mice of the N171-82Q strain; assay: Huntington's disease transgenic mouse model: rotarod and locomotion; assay type: in vivo
Protocol: Neuroprotective Effect of NAALADase Inhibitors in Transgenic Mouse Model of Huntington's Disease Behavioral Testing (Rotarod) Transgenic HD mice of the […]-[…] strain and non-transgenic littermates were treated with NAALADase inhibitor Compound B (30 mg/kg) or a vehicle from 10 weeks of age. The mice were placed on a rotating rod (“rotarod”). The length of time at which the mouse fell off the rotarod was recorded as a measure of motor coordination. […] The treatment with Compound B had no effect on the rotarod performance of normal non-HD mice. The total distance traveled by the mice was also recorded as a measure of overall locomotion.

[4] = system: transgenic HD mice (N171-82Q); assay: Huntington's disease transgenic mouse model: survival; assay type: in vivo
Protocol: The effects of Compound B and vehicle on the survival of transgenic HD mice (N171-82Q) were evaluated. Thirteen mice (six male and seven female) were assigned to the Compound B treatment group, and fourteen mice (six male and eight female) were assigned to the vehicle treatment group. Treatment was continued until all the mice died.

[5] = system: STZ-diabetic rats; assay: Neuropathic pain in STZ model (Hargreaves thermal nociception); assay type: in vivo, Sprague-Dawley rats; details: 10 mg/kg i.p. daily, started 45 days post-STZ
Protocol: In vivo Assay of NAALADase Inhibitors on Neuropathic Pain in STZ Model
Male Sprague-Dawley rats (200–225 g) were rendered diabetic by intravenous administration of streptozotocin (“STZ”, 70 mg/kg in phosphate buffered saline). Diabetic animals were divided into five groups: one group receiving Compound A (10 mg/kg or 1 mg/kg), Compound D (10 mg/kg or 1 mg/kg) or vehicle. Another group of animals (non-STZ treated) served as non-diabetic controls. Drug/vehicle treatment was started in diabetic animals 45 days post-STZ administration. STZ-induced diabetic rats were tested for sensitivity to a heat source as soon as blood glucose levels rose to 320 mg/dl or above (30 days post STZ). The rats were then acclimated to a Hargreaves apparatus and thermal nociception was monitored using an infrared heat source directed into the dorsal surface of the hindpaw, and the time taken for the animal to remove its paw noted to the nearest 0.1 seconds (see Hargreaves et al., J. Biol. Chem. (1988) 263(36):19392–7 for a description of the experimental method). The intensity of the beam source was adjusted such that the mean latency for control animals (non-STZ treated) was approximately 10 seconds. Each animal was tested 8 times and the mean difference score (between mean non-diabetic control latency and mean diabetic latency) are graphically presented in FIGS. 7A and 7B.

[6] = system: BB/W diabetic rats; assay: Progression of neuropathic pain in BB/W model (withdrawal latency); assay type: in vivo; details: 10 mg/kg i.p. daily; vs diabetic vehicle-treated rats, from 4 weeks through six months of treatment, FIG. 11
From the text: In vivo Assay of NAALADase Inhibitors on Progression of Neuropathic Pain in BB/W Models
(§4) Male BB/W rats (BRI, Mass) spontaneously develop a cell mediated autoimmune destruction of pancreatic B cells, resulting in onset of insulin-dependent (Type I) diabetes (Awata, Guberski, Endocrinology (1995) 136(12):5731–5). […] This renders them valuable for experimental trials of new compounds for future treatments of this major disorder. In the present study, Compound A and Compound D were examined for their ability to alter the progression of diabetic neuropathy. The rats received daily injection of Compound A or Compound D (10 mg/kg i.p.) or vehicle, starting at the onset of diabetes (hyperglycemia) and up to 6 months thereafter. Another group of non-diabetic rats also receiving vehicle were tested. All animals were continuously monitored for body weight, urine volume, blood sugar and glycated haemoglobin. In the first month of the study, all animals were tested for thermal nociception in a Hargreaves apparatus, weekly. After the first month this was done biweekly and then monthly. The testing consists of directing an infrared heat source onto the dorsal surface of the rat hindpaw and noting the time taken for the animal to remove its paw (see Hargreaves et al., J. Biol. Chem. (1988) 263(36):19392–7 for a description of the experimental method). […]

[7] = system: BB/W diabetic rats; assay: Nerve conduction velocity in BB/W model; assay type: in vivo; details: 10 mg/kg daily; vs diabetic vehicle controls, from 8 weeks to six months, FIG. 12
From the text: as §4, with “monthly.” for “monthly. The testing consists of directing an infrared heat source onto the dorsal surface of the rat hindpaw and noting the time taken for the animal to remove its paw (see Hargreaves et al., J. Biol. Chem. (1988) 263(36):19392–7 for a description of the experimental method).”
Nerve conduction velocity was also measured every two weeks through the first eight weeks of treatment and every month thereafter through to the six months of treatment (see De Koning et al., Peptides, Vol. 8, No. 3, pp. 415–22 (1987) for a description of the experimental method). […]

[8] = system: STZ-diabetic rats; assay: Diabetic neuropathy in STZ model (motor and sensory nerve conduction velocity); assay type: in vivo
Protocol: In vivo Assay of NAALADase Inhibitors on Diabetic Neuropathy in STZ Model
Motor and sensory nerve conduction velocity was also measured in STZ-diabetic animals after 4, 8 and 12 weeks of treatment (see De Koning et al., supra, for a description of the experimental method). Briefly, stimulating needle electrodes were inserted close to the sciatic and tibial nerves with recording electrodes being placed subcutaneously over the distal foot muscles, in anesthetized rats.

[9] = system: STZ diabetic rats; assay: Reversal of diabetic neuropathy in STZ model, delayed dosing: thermal hyperalgesia; assay type: in vivo
Protocol: (§5) In vivo Assay of NAALADase Inhibitors—Reversal of Diabetic Neuropathy in STZ Model
(§6) General Method for STZ Model—Delayed Dosing
(§7) Rats (200–225 grams) were injected with STZ (70 mg/kg) into the tail vein. Diabetes (>350 mg/dl) was confirmed in all rats, 4 weeks after STZ administration. Rats were left untreated until 35–49 days after STZ. Compound D (1, 3, or 10 mg/kg), Compound E (10 mg/kg), or vehicle were dosed daily p.o. following confirmation of hyperalgesia and/or nerve conduction velocity deficits. In separate experiments, onset of treatment was delayed until 60 to 90 days after STZ administration. Nerve conduction velocity or withdrawal response to thermal stimulation of hind paws was measured at intervals, usually bi-weekly for thermal response and monthly for nerve conduction velocity.
Animals were acclimated to the apparatus for at least 5 min. An infra-red source was placed under below the plantar surface of the rat hind-paw. The intensity of the source was adjusted so that latency for normal rats was about 10 secs. Animals were tested for thermal response latency according to the method of Hargreaves et al (Pain 77–88, 1988). Each animal was tested 8 times (4 each hind limb) and the latency of response recorded automatically to nearest 0.1 sec. An average of the last 4 measurements for each paw was calculated (8 total measurements) and noted for each rat.

[10] = system: STZ diabetic rats; assay: Reversal of diabetic neuropathy in STZ model, delayed dosing: nerve conduction velocity; assay type: in vivo
Protocol: as §5, §6, §7
Nerve Conduction Velocity Measurements
Sensory and motor nerve conduction velocities were evaluated using the method of De Koning and Gispen (Peptides 8: 415–422, 1987). Electrophysiological evaluation was carried out within one hour of dosing. Animals were anesthetized with isoflurane and stimulating needle electrodes were inserted close to the sciatic nerve at the sciatic notch and the tibial nerve near the ankle. Recording electrodes were placed over the foot muscles. Stimuli were applied and responses recorded. Motor and sensory nerve conduction velocities were calculated by measuring the distance between the sciatic notch and ankle sites, and the latency between the M-wave and the H-reflex.

[11] = 2 weeks survival after transection
[12] = 4 weeks survival after transection

Structure (SMILES): O=C(O)CCC(CCCS)C(=O)O (stereo not drawn) [Compound B, 2-(3-sulfanylpropyl)pentanedioic acid]
- FIBER NUMBER ([1]; 8 week group): 80785 ± 2121
- PERCENT DIFFERENCE in fiber number between glaucoma and normal eye ([1]; 8 week group): −0.82 ± 2.97%
- FIBER NUMBER ([1]; 12 week group): 90504 ± 1718
- PERCENT DIFFERENCE in fiber number between glaucoma and normal eye ([1]; 12 week group): −3.21 ± 2.86%
- remaining axons relative to the saline-treated rats ([2]; 2 weeks after transection): twice
- PERCENT DIFFERENCE in fiber number [2, 11]: 75.3 ± 14.8%
- FIBER NUMBER [2, 11]: 19,550 ± 11,383
- PERCENT DIFFERENCE in fiber number [2, 12]: 93.4 ± 6.2%
- FIBER NUMBER [2, 12]: 5,162 ± 5,017
- rotarod performance ([3]; normal non-HD mice, 30 mg/kg): no effect
- rotarod performance (time on rotarod) ([3]; transgenic HD mice, 30 mg/kg from 10 weeks of age, vs vehicle, FIG. 33): stayed longer on the rotarod
- survival time ([4]; female transgenic HD mice, vs vehicle, p-value=0.03, FIG. 37): significantly prolonged survival time
- median survival time ([4]; transgenic HD mice, all, vehicle 158.5 days, p-value=0.07, FIG. 35): 184 days

Structure (SMILES): O=C(O)CCC(CCS)C(=O)O (stereo not drawn) [Compound D, 2-(2-sulfanylethyl)pentanedioic acid]
- hyperalgesic response (withdrawal latency difference score) [5]: completely reversed
- withdrawal latency [6]: longer withdrawal latencies
- nerve conduction velocity [7]: significantly less severe nerve conduction deficits
- treatment time at which increase of motor and sensory nerve conduction velocities was significant ([8]; 1 mg/kg dose): at the earlier time periods
- motor and sensory nerve conduction velocities ([8]; either dose (10 mg/kg or 1 mg/kg), vs diabetic controls, FIGS. 10A and 10B): increased both motor and sensory nerve conduction velocities
- neuropathic hyperalgesia (thermal response latency) ([9]; daily p.o., treatment from 5 weeks post STZ, within two weeks of treatment, FIG. 22): reversed towards normal
- neuropathic pain abnormalities ([9]; lower doses (1 and 3 mg/kg) initiated after 7 weeks of STZ treatment, FIG. 25): Significant reduction in pain abnormalities
- motor nerve conduction velocity ([10]; daily p.o., within 8 weeks of dosing, persisted through 12 weeks, FIG. 23): reversed the motor nerve conduction velocity towards normal
- motor nerve conduction ([10]; lower doses (1 and 3 mg/kg), even 8 weeks after dosing, FIG. 27): remained unimproved
- sensory nerve conduction ([10]; lower doses (1 and 3 mg/kg), within 4 weeks of treatment, FIG. 26): significantly improved towards normal
- sensory and motor nerve conduction velocity deficits ([10]; untreated until 60 days after STZ treatment, external CRO, FIGS. 28 and 29): Partial reversal of both deficits
